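Method: 48-hour compound exposure of cells in 96-well plates, five concentrations, linear interpolation of endpoints. Definition used: TGI = concentration required for complete inhibition of growth.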
How the values were obtained:
Assay in all cases: DTP human tumour cell line panel, 48 h
HCC-2998 colon = tested on: HCC-2998 colon
SF-268 CNS = tested on: SF-268 CNS
IGROV1 ovarian = tested on: IGROV1 ovarian
SF-539 CNS = tested on: SF-539 CNS
KM20L2 colon = tested on: KM20L2 colon
MOLT-4 leukemia = tested on: MOLT-4 leukemia
EKVX NSCLC = tested on: EKVX NSCLC
CCRF-CEM leukemia = tested on: CCRF-CEM leukemia
HL-60(TB) leukemia = tested on: HL-60(TB) leukemia
COLO 205 colon = tested on: COLO 205 colon
A498 renal = tested on: A498 renal
SK-MEL-5 melanoma = tested on: SK-MEL-5 melanoma
OVCAR-8 ovarian = tested on: OVCAR-8 ovarian
KM12 colon = tested on: KM12 colon
MALME-3M melanoma = tested on: MALME-3M melanoma
ACHN renal = tested on: ACHN renal
UO-31 renal = tested on: UO-31 renal
TK-10 renal = tested on: TK-10 renal

Measured: TGI

Cc1ccc(S(=O)(=O)c2c3[nH]c4ccccc4nc3n3c2nc2ccccc23)cc1
> 100 µM: all assays above

— PubChem BioAssay (NCI)
